Source: ChEMBL document CHEMBL3046711, “Novel glitazones: glucose uptake and cytotoxic activities, and structureactivity relationships” (2012)
In brackets after ≈: the same amount, converted by molar mass.

Tests used:
Type in all cases: functional
[1] = test system: A549; assay: Cytotoxicity against Homo sapiens (human) A549 cells after 3 days by SRB assay; conditions: A549, 72 h
[2] = test system: Hemi-diaphragm; assay: Induction of glucose uptake in Rattus norvegicus Wistar (rat) hemi-diaphragm at 2 mg after 45 min by GOD/POD enzymatic method in presence of insulin
[3] = test system: Hemi-diaphragm; assay: Induction of glucose uptake in Rattus norvegicus Wistar (rat) hemi-diaphragm at 2 mg after 45 min by GOD/POD enzymatic method

O=C1NC(=O)/C(=C/c2ccc(OCCOc3ccccc3Cl)cc2)S1
CC50 [1]: 100 µg/mL (≈ 266 µM)
Activity [2]: 22.5 mg/dL
Activity [3]: 6 mg/dL

CN(CCOc1ccc(CC2SC(=O)NC2=O)cc1)c1ccccn1 (stereo not given) [ROSIGLITAZONE]
Activity [2]: 37 mg/dL
Activity [3]: 15.5 mg/dL
